Experimental data as given in patent publication US20250236838A1, “E. COLI NISSLE STRAIN WITH IMPROVED TRANSFORMATION EFFICIENCY” (priority 2024, published 2025).
“And” between values parts separate entries of the source, which are not always exact repeats. Equal entries are not always repeated.

Experiment: Hydrophobicity, dodecane partitioning assay
Assay type: physicochemical, E. coli Nissle
Experimental: Hydrophobicity was measured using a standard partitioning assay. Fresh cultures of both strains were grown till log phase (OD600=0.7). The OD was found using Thermo Fischer's NanoDrop^C. The OD546 of the cell (OD1) was adjusted to 0.3 using 10 mM CaCO3 solution. 4 ml of the cell suspension was transferred to individual test tubes having 1 ml of dodecane and vortexed at 2500 rpm for 10 minutes to homogenize the phases. The phases were allowed to separate for 15 minutes. The OD546 of the aqueous phase (OD2) was measured.
The mean percentage of partitioning was calculated using triplicate samples. Partitioning of the bacteria suspension is calculated using Equation (3).

With E. coli Nissle 1917 [Wild Type] the OD2 (OD546 of the aqueous phase after dodecane partitioning) was 0.14 and 0.17, the OD1 (OD546 of the cell suspension before partitioning) was 0.29 and 0.27 and the membrane hydrophobicity (conclusion from phase partitioning) was “hydrophilic”. For the same substance, the “Average Partitioning” value (mean of triplicate samples) was 45.636% and the “Percentage of Partitioning” value (single samples of triplicate) was 51.724% and 37.037% and 48.148%.
